From patent US9701685B2, “Spiropyrrolidines as MDM2 inhibitors” (HUDSON BIOPHARMA INC., priority 2014, dated 2017)

Tests used:
GST-tag full length MDM2 = GST-tag full length MDM2 (Homo sapiens (Human), UniProt Q00987); assay: MDM2-p53 TR-FRET Binding Assays; conditions: MDM2 / biotin p53 peptide
Source text: MDM2-p53 TR-FRET Binding Assays
Examples are listed in the following.

SJSA-1 = assay: Cell proliferation inhibition (CCK-8) against SJSA-1; type: cell-based; conditions: SJSA-1 human osteosarcoma cells, 5 days
Method: Cellular data of selected compounds against SW480 and SJSA-1 was conducted according to the following protocol.
Cells in the logarithmic growth phase were seeded into 96-well plates (Corning, 3599; 180 μL/well; 3000 cells/well for both SW480 and SJSA-1 cell lines) and cultured in an incubator (Thermo, 3111) for 24 h. Cells were then treated in triplicate by adding 20 μL/well solution containing different concentrations of the tested compounds in 5% CO2 at 37° C. for 5 days. After that, cells were treated for additional 4 h by adding 10 μL/well Cell Counting Kit-8 (CCK-8; DojinDo, CK04) solution. Finally, the absorbance was read at 450 nm with a microplate reader spectra-MAX190 (Molecular Devices, Sunnyvale, Calif.). The IC50 value was determined with SofeMax Pro, a software equipped in this reader. The cell proliferation inhibition rate was calculated as: proliferation inhibition (%)=[1-(A450 treated/A450 control)]×100%.
All the tested compounds could be dissolved in DMSO at 10^−2 M (as stock solution). […] The compounds were diluted at 9 3-fold serial concentrations beginning at the initial concentration of 10 μM (i.e., the highest final concentration to treat the cells). The detailed drug dilution protocol is: Add 5 μL stock solution (10^−2 M) into 495 μL medium, transfer 125 μL of the resulting solution (100 μM) into 250 μL medium, and repeat this till the 9th resulting concentration of 15.2 nM. Pipet 20 μL of each drug dilution into cell plates.

GST-tag full length MDM2, sequence (Q00987 whole entry): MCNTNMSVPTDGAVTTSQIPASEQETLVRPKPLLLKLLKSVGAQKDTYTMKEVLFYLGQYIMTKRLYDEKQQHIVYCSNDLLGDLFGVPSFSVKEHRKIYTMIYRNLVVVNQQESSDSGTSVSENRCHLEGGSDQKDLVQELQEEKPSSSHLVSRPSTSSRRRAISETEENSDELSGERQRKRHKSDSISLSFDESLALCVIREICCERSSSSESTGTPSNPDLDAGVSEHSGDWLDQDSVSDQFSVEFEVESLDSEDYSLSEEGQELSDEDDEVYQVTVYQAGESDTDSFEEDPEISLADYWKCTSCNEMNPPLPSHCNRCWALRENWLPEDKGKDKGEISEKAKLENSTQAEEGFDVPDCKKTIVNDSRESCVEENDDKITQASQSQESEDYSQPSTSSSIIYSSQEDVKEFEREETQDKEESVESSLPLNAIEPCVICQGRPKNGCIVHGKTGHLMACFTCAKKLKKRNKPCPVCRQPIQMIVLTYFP

Structure (SMILES): CCOC(=O)c1ccc(NC(=O)[C@@H]2N[C@@H](C[C@@H](C)C(F)(F)F)[C@@]3(C(=O)Nc4cc(Cl)ccc43)[C@H]2c2cccc(Cl)c2F)c(OC)c1 [Example 26, ethyl-4-[[(2′R,3′R,3′S,5′S)-6-chloro-3′(3-chloro-2-fluoro-phenyl)-2-oxo-5′-[(2R)-3,3,3-trifluoro-2-methyl-propyl]spiro[indoline-2,4′-pyrrolidine]-2′-carbonyl]amino]-3-methoxy-benzoate]
- IC50 (GST-tag full length MDM2): ≤ 7.2 nM
- IC50 (SJSA-1): ≤ 500 nM

Structure (SMILES): COc1cc(C(=O)O)ccc1NC(=O)[C@@H]1N[C@@H](C[C@@H](C)C(F)(F)F)[C@@]2(C(=O)Nc3cc(Cl)ccc32)[C@H]1c1cccc(Cl)c1F [Example 27, 4-[[(2′R,3R,3′S,5′S)-6-chloro-3′-(3-chloro-2-fluoro-phenyl)-2-oxo-5′-[(2R)-3,3,3-trifluoro-2-methyl-propyl]spiro[indoline-3,4′-pyrrolidine]-2′-carbonyl]amino]-3-methoxy-benzoic acid]
- IC50 (GST-tag full length MDM2): ≤ 3.6 nM
- IC50 (SJSA-1; Homo sapiens, SJSA-1, 120 h): ≤ 20 nM

Structure (SMILES): COc1cc(C(=O)O)ccc1NC(=O)[C@@H]1N[C@@H](C[C@@H](C)C(F)(F)F)[C@@]2(C(=O)Nc3cc(Cl)ccc32)[C@H]1c1cccc(Cl)c1F (racemic) [Example 11, 4-[[(2′R,3R,3′S,5′S)-6-chloro-3′-(3-chloro-2-fluoro-phenyl)-2-oxo-5′-[(2R)-3,3,3-trifluoro-2-methyl-propyl]spiro[indoline-3,4′-pyrrolidine]-2′-carbonyl]amino]-3-methoxy-benzoic acid]
- IC50 (GST-tag full length MDM2): ≤ 7.2 nM
- IC50 (SJSA-1; Homo sapiens, SJSA-1, 120 h): ≤ 71 nM

Structure (SMILES): COc1cc(C(N)=O)ccc1NC(=O)[C@@H]1N[C@@H](CC2(CF)CC2)C2(C(=O)Nc3cc(Cl)ccc32)[C@H]1c1cccc(Cl)c1F (some centres unmarked) [Example 75, 6-chloro-4′-(3-chloro-2-fluoro-phenyl)-2′-(1-fluoromethyl-cyclopropylmethyl)-2-oxo-1,2-dihydro-spiro[indole-3,3′-pyrrolidine]-5-carboxylic acid (4-carbamoyl-2-methoxy-phenyl)-amide]
- IC50 (GST-tag full length MDM2): ≤ 7.2 nM
- IC50 (SJSA-1; Homo sapiens, SJSA-1, 120 h): ≤ 20 nM
